{"source": "paper PMC6978363", "about": "“Chaperone mediated detection of small molecule target binding in cells” (Nature Communications, 2020)", "assay_in_all_cases": "biochemical", "key": {"Abl": {"target": "T1, Abl (Homo sapiens, UniProt P00519)", "T1 construct": "gene ABL1", "T1 sequence (P00519 whole entry)": "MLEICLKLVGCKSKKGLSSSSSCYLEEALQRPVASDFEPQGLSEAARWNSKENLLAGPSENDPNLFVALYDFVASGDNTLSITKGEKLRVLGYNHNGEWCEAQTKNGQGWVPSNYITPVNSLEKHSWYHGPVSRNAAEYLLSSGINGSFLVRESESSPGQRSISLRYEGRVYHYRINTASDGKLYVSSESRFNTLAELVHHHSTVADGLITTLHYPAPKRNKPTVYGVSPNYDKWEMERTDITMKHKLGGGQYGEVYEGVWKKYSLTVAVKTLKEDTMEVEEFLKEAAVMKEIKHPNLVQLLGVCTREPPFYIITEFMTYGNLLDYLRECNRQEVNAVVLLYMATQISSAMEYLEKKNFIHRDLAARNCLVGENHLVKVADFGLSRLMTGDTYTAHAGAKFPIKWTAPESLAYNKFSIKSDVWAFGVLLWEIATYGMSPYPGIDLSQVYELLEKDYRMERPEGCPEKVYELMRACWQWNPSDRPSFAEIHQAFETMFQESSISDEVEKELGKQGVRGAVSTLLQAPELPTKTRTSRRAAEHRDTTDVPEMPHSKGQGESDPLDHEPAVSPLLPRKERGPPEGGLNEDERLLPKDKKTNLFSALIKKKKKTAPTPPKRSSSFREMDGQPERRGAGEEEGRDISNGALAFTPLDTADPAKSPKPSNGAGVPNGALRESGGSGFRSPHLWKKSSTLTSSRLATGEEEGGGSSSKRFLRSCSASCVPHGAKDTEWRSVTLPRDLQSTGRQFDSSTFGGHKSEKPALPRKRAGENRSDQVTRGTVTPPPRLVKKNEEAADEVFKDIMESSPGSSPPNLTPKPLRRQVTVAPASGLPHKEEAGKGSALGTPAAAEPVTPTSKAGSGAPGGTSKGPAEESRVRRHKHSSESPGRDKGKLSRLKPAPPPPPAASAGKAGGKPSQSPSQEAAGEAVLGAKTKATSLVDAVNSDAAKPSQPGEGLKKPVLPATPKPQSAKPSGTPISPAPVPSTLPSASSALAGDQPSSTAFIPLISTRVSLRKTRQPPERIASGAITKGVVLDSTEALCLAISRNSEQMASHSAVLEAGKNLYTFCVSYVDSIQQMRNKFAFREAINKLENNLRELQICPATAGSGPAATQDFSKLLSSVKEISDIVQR", "conditions": "read-out: % Inhibition (at 10mM)"}, "CDK5/p35": {"target": "T2, CDK5/p35 (Homo sapiens, UniProt Q00535)", "T2 construct": "p35", "T2 sequence (Q00535 whole entry)": "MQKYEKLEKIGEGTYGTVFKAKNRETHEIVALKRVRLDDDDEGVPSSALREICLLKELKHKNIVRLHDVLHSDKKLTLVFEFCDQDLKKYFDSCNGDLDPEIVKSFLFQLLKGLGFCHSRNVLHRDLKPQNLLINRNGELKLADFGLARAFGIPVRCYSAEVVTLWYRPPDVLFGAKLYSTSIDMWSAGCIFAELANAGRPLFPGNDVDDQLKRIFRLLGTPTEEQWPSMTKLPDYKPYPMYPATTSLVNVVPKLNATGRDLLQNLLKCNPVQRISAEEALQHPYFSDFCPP", "T2 sequence (Q15078 whole entry partner)": "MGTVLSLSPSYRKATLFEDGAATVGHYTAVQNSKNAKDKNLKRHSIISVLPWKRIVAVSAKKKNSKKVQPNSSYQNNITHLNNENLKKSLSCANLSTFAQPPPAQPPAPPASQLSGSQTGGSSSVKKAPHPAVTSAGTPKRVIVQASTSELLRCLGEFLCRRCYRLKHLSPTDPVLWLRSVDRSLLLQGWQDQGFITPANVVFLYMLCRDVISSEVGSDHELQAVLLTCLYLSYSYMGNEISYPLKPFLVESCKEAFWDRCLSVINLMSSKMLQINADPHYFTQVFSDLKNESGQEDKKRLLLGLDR", "conditions": "read-out: % Inhibition (at 10mM)"}, "CLK2": {"target": "CLK2 (Homo sapiens, UniProt P49760)", "conditions": "read-out: % Inhibition (at 10mM)"}, "Fgr": {"target": "Fgr (Homo sapiens, UniProt P09769)", "conditions": "read-out: % Inhibition (at 10mM)"}, "Flt1": {"target": "Flt1 (Homo sapiens, UniProt P17948)", "conditions": "read-out: % Inhibition (at 10mM)"}, "Frk": {"target": "Frk (Homo sapiens, UniProt P42685)", "conditions": "read-out: % Inhibition (at 10mM)"}, "GRK7": {"target": "GRK7 (Homo sapiens, UniProt Q8WTQ7)", "conditions": "read-out: % Inhibition (at 10mM)"}, "ITK": {"target": "ITK (Homo sapiens, UniProt Q08881)", "sequence (Q08881 whole entry)": "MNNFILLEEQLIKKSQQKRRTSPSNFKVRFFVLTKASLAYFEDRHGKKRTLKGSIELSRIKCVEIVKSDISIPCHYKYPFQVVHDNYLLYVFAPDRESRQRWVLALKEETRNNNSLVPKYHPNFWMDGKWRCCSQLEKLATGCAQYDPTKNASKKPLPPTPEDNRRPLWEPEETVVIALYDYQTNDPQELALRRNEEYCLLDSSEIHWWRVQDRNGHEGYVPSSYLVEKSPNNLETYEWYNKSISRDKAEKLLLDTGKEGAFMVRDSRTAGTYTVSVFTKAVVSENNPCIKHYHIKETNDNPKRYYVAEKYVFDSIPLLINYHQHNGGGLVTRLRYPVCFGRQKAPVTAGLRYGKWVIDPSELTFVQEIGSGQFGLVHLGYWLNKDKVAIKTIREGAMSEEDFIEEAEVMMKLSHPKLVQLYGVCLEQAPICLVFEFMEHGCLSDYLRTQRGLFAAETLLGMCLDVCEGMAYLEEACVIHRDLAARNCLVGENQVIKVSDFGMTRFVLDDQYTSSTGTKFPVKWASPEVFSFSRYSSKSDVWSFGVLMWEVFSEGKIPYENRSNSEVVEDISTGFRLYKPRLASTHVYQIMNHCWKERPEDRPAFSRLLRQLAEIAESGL", "conditions": "read-out: % Inhibition (at 10mM)"}, "KSR2": {"target": "KSR2 (Homo sapiens, UniProt Q6VAB6)", "conditions": "read-out: % Inhibition (at 10mM)"}, "MARK3": {"target": "MARK3 (Homo sapiens, UniProt P27448)", "conditions": "read-out: % Inhibition (at 10mM)"}, "MARK4": {"target": "MARK4 (Homo sapiens, UniProt Q96L34)", "sequence (Q96L34 whole entry)": "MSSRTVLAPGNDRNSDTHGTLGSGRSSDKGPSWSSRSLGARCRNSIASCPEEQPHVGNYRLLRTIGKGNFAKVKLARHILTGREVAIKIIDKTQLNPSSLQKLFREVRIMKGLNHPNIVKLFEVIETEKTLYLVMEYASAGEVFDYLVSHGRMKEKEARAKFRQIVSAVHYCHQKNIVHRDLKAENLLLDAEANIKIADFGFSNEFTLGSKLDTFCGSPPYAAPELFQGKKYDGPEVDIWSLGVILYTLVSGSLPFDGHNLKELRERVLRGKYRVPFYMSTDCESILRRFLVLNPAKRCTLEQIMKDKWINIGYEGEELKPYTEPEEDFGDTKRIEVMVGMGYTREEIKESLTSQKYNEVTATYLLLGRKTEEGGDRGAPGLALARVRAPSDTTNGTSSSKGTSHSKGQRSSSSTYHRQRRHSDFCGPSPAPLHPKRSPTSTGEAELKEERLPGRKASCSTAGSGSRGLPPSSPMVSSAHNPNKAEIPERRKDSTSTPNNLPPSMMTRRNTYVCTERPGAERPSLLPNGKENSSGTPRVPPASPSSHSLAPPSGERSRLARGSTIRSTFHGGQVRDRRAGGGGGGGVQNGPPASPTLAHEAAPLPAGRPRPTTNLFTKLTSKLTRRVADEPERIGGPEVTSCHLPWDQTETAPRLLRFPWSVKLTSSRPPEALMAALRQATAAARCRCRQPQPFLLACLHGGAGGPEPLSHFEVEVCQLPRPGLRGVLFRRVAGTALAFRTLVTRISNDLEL", "conditions": "read-out: % Inhibition (at 10mM)"}, "MST2": {"target": "T3, MST2 (Homo sapiens, UniProt Q13188)", "T3 construct": "gene STK3", "conditions": "read-out: % Inhibition (at 10mM)"}, "MST3": {"target": "T4, MST3 (Homo sapiens, UniProt Q9Y6E0)", "T4 construct": "gene STK24", "conditions": "read-out: % Inhibition (at 10mM)"}, "Mink1": {"target": "Mink1 (Homo sapiens, UniProt Q8N4C8)", "conditions": "read-out: % Inhibition (at 10mM)"}, "NEK1": {"target": "NEK1 (Homo sapiens, UniProt Q96PY6)", "conditions": "read-out: % Inhibition (at 10mM)"}, "PIM1": {"target": "PIM1 (Homo sapiens, UniProt P11309)", "conditions": "read-out: % Inhibition (at 10mM)"}, "PIM2": {"target": "PIM2 (Homo sapiens, UniProt Q9P1W9)", "conditions": "read-out: % Inhibition (at 10mM)"}, "PKC_gamma": {"target": "T5, PKC_gamma (Homo sapiens, UniProt P05129)", "T5 construct": "gene PRKCG", "conditions": "read-out: % Inhibition (at 10mM)"}, "PKC_iota": {"target": "T6, PKC_iota (Homo sapiens, UniProt P41743)", "T6 construct": "gene PRKCI", "conditions": "read-out: % Inhibition (at 10mM)"}, "PKC_theta": {"target": "T7, PKC_theta (Homo sapiens, UniProt Q04759)", "T7 construct": "gene PRKCQ", "conditions": "read-out: % Inhibition (at 10mM)"}, "PKC_zeta": {"target": "T8, PKC_zeta (Homo sapiens, UniProt Q05513)", "T8 construct": "gene PRKCZ", "conditions": "read-out: % Inhibition (at 10mM)"}, "PKD3": {"target": "T9, PKD3 (Homo sapiens, UniProt O94806)", "T9 construct": "gene PRKD3", "conditions": "read-out: % Inhibition (at 10mM)"}, "PKG1_alpha": {"target": "T10, PKG1_alpha (Homo sapiens, UniProt Q13976)", "T10 construct": "gene PRKG1; isoform alpha", "conditions": "read-out: % Inhibition (at 10mM)"}, "PLK2": {"target": "PLK2 (Homo sapiens, UniProt Q9NYY3)", "conditions": "read-out: % Inhibition (at 10mM)"}, "PRK1": {"target": "T11, PRK1 (Homo sapiens, UniProt Q16512)", "T11 construct": "gene PKN1", "conditions": "read-out: % Inhibition (at 10mM)"}, "PRKAA1_B2_G3": {"target": "T12, PRKAA1_B2_G3 (Homo sapiens, UniProt Q13131)", "T12 construct": "gene PRKAA1", "conditions": "read-out: % Inhibition (at 10mM)"}, "PRKAA2_B1_G2": {"target": "T13, PRKAA2_B1_G2 (Homo sapiens, UniProt P54646)", "T13 construct": "gene PRKAA2", "conditions": "read-out: % Inhibition (at 10mM)"}, "PRKAA2_B2_G3": {"target": "T14, PRKAA2_B2_G3 (Homo sapiens, UniProt P54646)", "T14 construct": "gene PRKAA2", "conditions": "read-out: % Inhibition (at 10mM)"}, "RSK4": {"target": "T15, RSK4 (Homo sapiens, UniProt Q9UK32)", "T15 construct": "gene RPS6KA6", "conditions": "read-out: % Inhibition (at 10mM)"}, "Ret": {"target": "Ret (Homo sapiens, UniProt P07949)", "conditions": "read-out: % Inhibition (at 10mM)"}, "SGK2": {"target": "SGK2 (Homo sapiens, UniProt Q9HBY8)", "conditions": "read-out: % Inhibition (at 10mM)"}, "SRPK1": {"target": "SRPK1 (Homo sapiens, UniProt Q96SB4)", "conditions": "read-out: % Inhibition (at 10mM)"}, "Syk": {"target": "Syk (Homo sapiens, UniProt P43405)", "conditions": "read-out: % Inhibition (at 10mM)"}, "TSSK1": {"target": "T16, TSSK1 (Homo sapiens, UniProt Q9BXA7)", "T16 construct": "gene TSSK1B", "conditions": "read-out: % Inhibition (at 10mM)"}, "YSK1": {"target": "T17, YSK1 (Homo sapiens, UniProt O00506)", "T17 construct": "gene STK25", "T17 sequence (O00506 whole entry)": "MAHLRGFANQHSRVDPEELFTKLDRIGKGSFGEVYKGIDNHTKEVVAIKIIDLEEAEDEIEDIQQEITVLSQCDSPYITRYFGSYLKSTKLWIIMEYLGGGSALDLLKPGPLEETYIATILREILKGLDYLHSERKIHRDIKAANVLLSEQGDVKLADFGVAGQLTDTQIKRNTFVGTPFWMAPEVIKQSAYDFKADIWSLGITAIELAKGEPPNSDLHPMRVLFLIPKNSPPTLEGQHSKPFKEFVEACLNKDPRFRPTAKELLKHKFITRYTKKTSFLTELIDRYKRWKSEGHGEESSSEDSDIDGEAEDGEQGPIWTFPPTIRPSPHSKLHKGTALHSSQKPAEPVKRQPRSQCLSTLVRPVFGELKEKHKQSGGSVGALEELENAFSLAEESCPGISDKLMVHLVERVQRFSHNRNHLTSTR", "conditions": "read-out: % Inhibition (at 10mM)"}, "YSK4": {"target": "T18, YSK4 (Homo sapiens, UniProt Q56UN5)", "T18 construct": "gene MAP3K19", "T18 sequence (Q56UN5 whole entry)": "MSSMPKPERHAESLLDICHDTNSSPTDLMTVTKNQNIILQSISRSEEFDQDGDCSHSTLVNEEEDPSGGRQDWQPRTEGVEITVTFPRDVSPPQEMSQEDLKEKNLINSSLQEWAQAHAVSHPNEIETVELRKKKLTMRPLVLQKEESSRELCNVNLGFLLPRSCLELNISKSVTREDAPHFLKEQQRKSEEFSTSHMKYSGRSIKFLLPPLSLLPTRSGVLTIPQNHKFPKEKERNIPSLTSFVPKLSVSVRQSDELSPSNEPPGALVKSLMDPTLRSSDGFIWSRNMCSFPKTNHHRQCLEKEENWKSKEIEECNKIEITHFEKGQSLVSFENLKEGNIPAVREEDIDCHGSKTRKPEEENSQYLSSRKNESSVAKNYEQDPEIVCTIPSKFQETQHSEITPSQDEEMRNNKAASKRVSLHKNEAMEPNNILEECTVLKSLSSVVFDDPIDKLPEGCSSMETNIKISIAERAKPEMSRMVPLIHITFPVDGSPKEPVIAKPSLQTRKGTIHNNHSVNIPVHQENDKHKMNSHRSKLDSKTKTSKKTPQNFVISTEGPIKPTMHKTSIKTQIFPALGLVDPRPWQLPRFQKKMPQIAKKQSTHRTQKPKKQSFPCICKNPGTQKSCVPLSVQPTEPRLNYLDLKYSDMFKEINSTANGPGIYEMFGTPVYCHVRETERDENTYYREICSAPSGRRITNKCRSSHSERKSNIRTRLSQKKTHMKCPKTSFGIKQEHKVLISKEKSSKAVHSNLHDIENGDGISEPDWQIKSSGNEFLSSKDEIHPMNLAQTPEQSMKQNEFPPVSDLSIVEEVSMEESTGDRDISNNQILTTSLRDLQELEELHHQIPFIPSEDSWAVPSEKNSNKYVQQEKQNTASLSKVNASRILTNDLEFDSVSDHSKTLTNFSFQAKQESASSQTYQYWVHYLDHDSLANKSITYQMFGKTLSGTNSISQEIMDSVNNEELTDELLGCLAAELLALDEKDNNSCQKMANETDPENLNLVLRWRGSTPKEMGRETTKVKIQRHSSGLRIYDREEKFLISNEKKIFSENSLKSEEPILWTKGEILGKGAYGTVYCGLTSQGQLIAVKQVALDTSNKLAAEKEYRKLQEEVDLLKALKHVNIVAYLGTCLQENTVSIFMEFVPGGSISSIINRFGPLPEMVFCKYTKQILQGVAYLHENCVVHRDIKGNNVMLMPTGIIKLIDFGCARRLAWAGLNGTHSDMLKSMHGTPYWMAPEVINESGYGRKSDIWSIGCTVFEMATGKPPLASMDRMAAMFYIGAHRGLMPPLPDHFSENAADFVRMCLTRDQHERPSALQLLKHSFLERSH", "conditions": "read-out: % Inhibition (at 10mM)"}, "mTOR": {"target": "mTOR (Homo sapiens, UniProt P42345)"}, "p38_beta": {"target": "T19, p38_beta (Homo sapiens, UniProt Q15759)", "T19 construct": "gene MAPK11", "conditions": "read-out: % Inhibition (at 10mM)"}}}
{"compound": "CC(C)(O)CC(=O)NCCn1ccc2ncnc(Nc3ccc(Oc4cccc(C(F)(F)F)c4)c(Cl)c3)c21", "note": "[TAK-285]", "values": [{"measurement": "inhibition", "setting": "Abl", "result": 9, "unit": "%"}, {"measurement": "inhibition", "setting": "CDK5/p35", "result": 3.5, "unit": "%"}, {"measurement": "inhibition", "setting": "CLK2", "result": 18.5, "unit": "%"}, {"measurement": "inhibition", "setting": "Fgr", "result": 65, "unit": "%"}, {"measurement": "inhibition", "setting": "Flt1", "result": -1.5, "unit": "%"}, {"measurement": "inhibition", "setting": "Frk", "result": 4.5, "unit": "%"}, {"measurement": "inhibition", "setting": "GRK7", "result": 5.5, "unit": "%"}, {"measurement": "inhibition", "setting": "ITK", "result": 1, "unit": "%"}, {"measurement": "inhibition", "setting": "KSR2", "result": 0, "unit": "%"}, {"measurement": "inhibition", "setting": "MARK3", "result": 6.5, "unit": "%"}, {"measurement": "inhibition", "setting": "MARK4", "result": 3.5, "unit": "%"}, {"measurement": "inhibition", "setting": "MST2", "result": 6, "unit": "%"}, {"measurement": "inhibition", "setting": "MST3", "result": 7, "unit": "%"}, {"measurement": "inhibition", "setting": "Mink1", "result": 7, "unit": "%"}, {"measurement": "inhibition", "setting": "NEK1", "result": 1.5, "unit": "%"}, {"measurement": "inhibition", "setting": "PIM1", "result": 5.5, "unit": "%"}, {"measurement": "inhibition", "setting": "PIM2", "result": 5.5, "unit": "%"}, {"measurement": "inhibition", "setting": "PKC_gamma", "result": 8, "unit": "%"}, {"measurement": "inhibition", "setting": "PKC_iota", "result": 8, "unit": "%"}, {"measurement": "inhibition", "setting": "PKC_theta", "result": 12, "unit": "%"}, {"measurement": "inhibition", "setting": "PKC_zeta", "result": 8.5, "unit": "%"}, {"measurement": "inhibition", "setting": "PKD3", "result": 31.5, "unit": "%"}, {"measurement": "inhibition", "setting": "PKG1_alpha", "result": 0, "unit": "%"}, {"measurement": "inhibition", "setting": "PLK2", "result": 2.5, "unit": "%"}, {"measurement": "inhibition", "setting": "PRK1", "result": -7, "unit": "%"}, {"measurement": "inhibition", "setting": "PRKAA1_B2_G3", "result": 0.5, "unit": "%"}, {"measurement": "inhibition", "setting": "PRKAA2_B1_G2", "result": 4.5, "unit": "%"}, {"measurement": "inhibition", "setting": "PRKAA2_B2_G3", "result": 9.5, "unit": "%"}, {"measurement": "inhibition", "setting": "RSK4", "result": 2.5, "unit": "%"}, {"measurement": "inhibition", "setting": "Ret", "result": 15.5, "unit": "%"}, {"measurement": "inhibition", "setting": "SGK2", "result": 3.5, "unit": "%"}, {"measurement": "inhibition", "setting": "SRPK1", "result": 10.5, "unit": "%"}, {"measurement": "inhibition", "setting": "Syk", "result": 3.5, "unit": "%"}, {"measurement": "inhibition", "setting": "TSSK1", "result": -6.5, "unit": "%"}, {"measurement": "inhibition", "setting": "YSK1", "result": 5.5, "unit": "%"}, {"measurement": "inhibition", "setting": "YSK4", "result": 1, "unit": "%"}, {"measurement": "inhibition at 10 µM", "setting": "mTOR", "result": 9.5, "unit": "%"}, {"measurement": "inhibition", "setting": "p38_beta", "result": 1, "unit": "%"}]}
